Five molecules from patent US6881741B2 (ViroChem Pharma Inc., priority 2001, dated 2005) can be followed below.

In assay [1] the target is recombinant HCV NS5B (HCV RNA-dependent RNA polymerase) (Hepatitis C virus genotype 1b, UniProt P26663). The experiment in a line: biochemical. Particulars: related polymerase activity (Example 27 list); read-out: IC50.
Assay [2] deals with T1, HCV NS3 enzyme (ATPase activity of HCV NS3 helicase) (Hepatitis C virus genotype 1b, UniProt P26663). The experiment in a line: ATPase activity of HCV NS3 helicase, Malachite Green Assay. The class given is biochemical. Particulars: free inorganic phosphate release, 30 min at 37 C, 200 μM ATP, 3 nM enzyme, read-out: Anti-ATPase (Malachite Green assay) EC50. As to the method: (§1) Evaluation of Analogues for measurement of ATPase activity of HCV NS3 helicase
The measurement of ATPase activity was performed by measuring the amount of free inorganic phosphate released during the conversion of ATP to ADP by the HCV NS3 ATPase activity. The assay is as follows: In a 96-well microtiter-plate, compounds were dissolved at various concentrations in a final volume of 25 μl of ATPase buffer containing 400 μM ATP. The enzymatic reaction was initiated by the addition of 25 μl of ATPase buffer containing 6 nM of HCV NS3 enzyme without ATP to the wells followed by an incubation of 30 min. at 37 C. Essentially, the final concentration of the ATPase buffer components are as follows: 44 mM MOPS pH 7.0, 8.8 mM NaCl, 2.2 mM MgCl2, 125 μg/ml poly A, 1% DMSO, 200 μM ATP, and 3 nM HCV NS3 enzyme. The reaction was stopped by the addition of 100 μl of Biomol Green™ reagent (BIOMOL® Research Laboratories Inc., Plymouth Meeting, Pa.). In order to allow the development of the green color, the plate was incubated for 15 min. at room temperature. Then the plate was read on a micro-plate reader at 620 nm. […] The signal recorded was also corrected from the background signal obtained with control samples with compound only. The IC50 was determined from dose-response curves using six to eight concentrations per compound. […]

Assay [3] addresses T1, HCV NS3 enzyme (ATPase activity of HCV NS3 helicase). The experiment in a line: ATPase activity of HCV NS3 helicase, HPLC Assay. It is filed as biochemical. Particulars: ADP produced measured by paired-ion HPLC, 1 nM enzyme, read-out: Anti-ATPase (HPLC method) EC50. As to the method:
as §1
The measurement of HCV NS3 ATPase activity was performed by measuring the amount of ADP produced during the conversion of ATP to ADP by the HCV NS3 enzyme using paired-ion HPLC on a reverse phase column. […]. The mobile phase was an isocratic solution of 0.15 M triethylamine, 6% methanol, and phosphoric acid to pH 5.5. ADP and ATP peaks were resolved using the Aqua 5μ, C18, 125 Å, (150×4.6 mm) reverse phase column. The extent of ATP conversion to ADP was evaluated by measuring the area under the ADP peak produced which was detected at 259 nm. The amount of ADP was corrected for the presence of ADP contaminant in the original ATP solution. […] The IC50 was determined from dose-response curves using six to eight concentrations per compound. Curves were fitted to data points using a non-linear regression analysis, and IC50s were interpolated from the resulting curves using GraphPad Prism software, version 2.0 (GraphPad Software Inc, San Diego, Calif.).

Sequence of recombinant HCV NS5B (HCV RNA-dependent RNA polymerase) (P26663 2420-3010 limits assumed): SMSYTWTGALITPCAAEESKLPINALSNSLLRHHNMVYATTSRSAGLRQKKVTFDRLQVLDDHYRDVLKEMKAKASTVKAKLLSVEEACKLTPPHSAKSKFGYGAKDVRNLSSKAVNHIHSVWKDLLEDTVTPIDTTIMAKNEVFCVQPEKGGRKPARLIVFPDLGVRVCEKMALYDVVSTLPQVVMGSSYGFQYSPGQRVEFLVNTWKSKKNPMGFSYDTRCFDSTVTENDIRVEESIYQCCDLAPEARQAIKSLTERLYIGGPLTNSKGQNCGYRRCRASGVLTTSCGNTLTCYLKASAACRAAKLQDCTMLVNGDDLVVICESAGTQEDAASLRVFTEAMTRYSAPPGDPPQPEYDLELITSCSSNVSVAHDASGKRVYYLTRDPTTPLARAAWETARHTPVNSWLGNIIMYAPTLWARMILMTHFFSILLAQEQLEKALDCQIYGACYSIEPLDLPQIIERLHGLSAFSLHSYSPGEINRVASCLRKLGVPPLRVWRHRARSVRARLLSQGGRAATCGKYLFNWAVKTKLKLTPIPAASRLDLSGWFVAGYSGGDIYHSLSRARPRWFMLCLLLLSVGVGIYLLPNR
T1 sequence (P26663 1027-1657 limits assumed): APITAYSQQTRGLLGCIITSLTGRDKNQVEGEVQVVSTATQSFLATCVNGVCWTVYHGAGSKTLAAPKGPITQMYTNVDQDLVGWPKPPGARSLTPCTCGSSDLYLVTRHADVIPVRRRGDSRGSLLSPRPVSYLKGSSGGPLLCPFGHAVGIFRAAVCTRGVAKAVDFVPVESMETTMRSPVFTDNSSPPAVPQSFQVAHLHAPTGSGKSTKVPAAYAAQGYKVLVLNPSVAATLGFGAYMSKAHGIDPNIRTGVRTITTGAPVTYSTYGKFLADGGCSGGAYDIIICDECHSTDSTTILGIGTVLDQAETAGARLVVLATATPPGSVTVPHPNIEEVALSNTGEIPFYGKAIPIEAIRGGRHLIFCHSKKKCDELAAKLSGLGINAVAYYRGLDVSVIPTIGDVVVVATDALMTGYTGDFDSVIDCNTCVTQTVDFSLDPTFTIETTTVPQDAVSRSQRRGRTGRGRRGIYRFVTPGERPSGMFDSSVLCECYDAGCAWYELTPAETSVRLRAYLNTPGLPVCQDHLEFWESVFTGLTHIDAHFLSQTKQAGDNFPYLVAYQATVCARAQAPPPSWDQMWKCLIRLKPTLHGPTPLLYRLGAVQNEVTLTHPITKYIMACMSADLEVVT

What is called IC50 is the concentration that inhibits the measured activity by half. Usually EC50 stands for the concentration needed to bring the measured effect to its halfway point. In the case of `Cc1cc(S(=O)(=O)Nc2cc(-c3ccc(CC(C)C)cc3)sc2C(=O)O)c(C)cc1Cl` [Compound #19, 3-(4-Chloro-2,5-dimethyl-benzenesulfonylamino)-5-(4-isobutyl-phenyl)-thiophene-2-carboxylic acid], the IC50 in assay [1] was in the range of 5 to 20 µM. Further, the figures for the EC50 in assay [2] and in assay [3] were < 5 µM and 5 to 20 µM, respectively.

`Cc1cc(S(=O)(=O)Nc2cc(-c3ccc(Cl)cc3)sc2C(=O)O)c(C)cc1Cl` [Compound #14, 3-(4-Chloro-2,5-dimethyl-benzenesulfonylamino)-5-(4-chloro-phenyl)-thiophene-2-carboxylic acid]: the IC50 in assay [1] was < 5 µM. In addition, the EC50 in assay [2] was > 20 µM.

As for `CC(C)Cc1ccc(-c2cc(NS(=O)(=O)c3ccc(Br)cc3F)c(C(=O)O)s2)cc1` [Compound #223, 3-(4-Bromo-2-fluorobenzenesulfonyl-amino)-5-(4-isobutylphenyl)-thiophene-2-carboxylic acid], in assay [1], the IC50 fell in the range of 5 to 20 µM. Besides, the concentration for a half-maximal effect (EC50) in assay [3] was < 5 µM.

Turning to `Cc1cc(Br)ccc1S(=O)(=O)Nc1cc(-c2ccc(CC(C)C)cc2)sc1C(=O)O` [Compound #224, 3-(4-Bromo-2-methylbenzenesulfonyl-amino)-5-(4-isobutylphenyl)-thiophene-2-carboxylic acid], in assay [1], the IC50 was > 20 µM. Further, the EC50 in assay [3] was 5 to 20 µM.

Regarding `CC(C)Cc1ccc(-c2cc(NS(=O)(=O)c3cc(OCC(F)(F)F)ccc3OCC(F)(F)F)c(C(=O)O)s2)cc1` [Compound #227, 3-[2,5-Bis-(2,2,2-trifluoroethoxy)-benzenesulfonylamino]-5-(4-isobutyl-phenyl)-thiophene-2-carboxylic acid], the half-inhibitory concentration (IC50) in assay [1] is > 20 µM. For the same molecule, the EC50 in assay [3] was > 20 µM.
